In patent US12110295B2, “WD40 repeat domain protein 5 (WDR5) degradation/disruption compounds and methods of use” (Icahn School of Medicine at Mount Sinai, priority 2018, dated 2024):

Biological target: WDR5 (Homo sapiens, UniProt P61964)
Assay: Screening of putative WDR5 degraders by Western blot in MV4;11 and/or MIAPACA2 cells
Type: cell-based
Set-up: After WDR5 degrader treatment, cells were collected and lysed; endogenous in cells; host or cells: MV4;11 and/or MIAPACA2
Conditions: summary of screening, FIGS. 6-10
Summary of the method: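 MV4;11 (1×10^6/well) or MIAPACA2 (1×10^5/well) cells treated 18 h with compound at paired doses between 0.1 and 10 μM, DMSO as control. Total lysates immunoblotted for WDR5 with vinculin, tubulin or GAPDH loading controls; fluorescent secondary detection.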

| SMILES | effective degradation of WDR5 in MV4;11 and/or MIAPACA2 cells |
| --- | --- |
| Cc1ncsc1-c1ccc(CNC(=O)[C@@H]2C[C@@H](O)CN2C(=O)[C@@H](NC(=O)CCCCC(=O)N2CC=C(c3cc(NC(=O)c4c[nH]c(=O)cc4C(F)(F)F)c(N4C[C@@H](C)N(C)[C@@H](C)C4)cc3F)CC2)C(C)(C)C)cc1 [XF078-41, N-(4-fluoro-5-(1-(6-(((S)-1-((2S,4R)-4-hydroxy-2-((4-(4-methylthiazol-5-yl)benzyl)carbamoyl)pyrrolidin-1-yl)-3,3-dimethyl-1-oxobutan-2-yl)amino)-6-oxohexanoyl)-1,2,3,6-tetrahydropyridin-4-yl)-2-((3S,5R)-3,4,5-trimethylpiperazin-1-yl)phenyl)-6-oxo-4-(trifluoromethyl)-1,6-dihydropyridine-3-carboxamide] | able to effectively degrade WDR5 |
| Cc1ncsc1-c1ccc(CNC(=O)[C@@H]2C[C@@H](O)CN2C(=O)[C@@H](NC(=O)CCCCCC(=O)N2CC=C(c3cc(NC(=O)c4c[nH]c(=O)cc4C(F)(F)F)c(N4C[C@@H](C)N(C)[C@@H](C)C4)cc3F)CC2)C(C)(C)C)cc1 [XF078-42, N-(4-fluoro-5-(1-(7-(((S)-1-((2S,4R)-4-hydroxy-2-((4-(4-methylthiazol-5-yl)benzyl)carbamoyl)pyrrolidin-1-yl)-3,3-dimethyl-1-oxobutan-2-yl)amino)-7-oxoheptanoyl)-1,2,3,6-tetrahydropyridin-4-yl)-2-((3S,5R)-3,4,5-trimethylpiperazin-1-yl)phenyl)-6-oxo-4-(trifluoromethyl)-1,6-dihydropyridine-3-carboxamide] | able to effectively degrade WDR5 |
| Cc1ncsc1-c1ccc(CNC(=O)[C@@H]2C[C@@H](O)CN2C(=O)[C@@H](NC(=O)CCCCCCC(=O)N2CC=C(c3cc(NC(=O)c4c[nH]c(=O)cc4C(F)(F)F)c(N4C[C@@H](C)N(C)[C@@H](C)C4)cc3F)CC2)C(C)(C)C)cc1 [XF078-43, N-(4-fluoro-5-(1-(8-(((S)-1-((2S,4R)-4-hydroxy-2-((4-(4-methylthiazol-5-yl)benzyl)carbamoyl)pyrrolidin-1-yl)-3,3-dimethyl-1-oxobutan-2-yl)amino)-8-oxooctanoyl)-1,2,3,6-tetrahydropyridin-4-yl)-2-((3S,5R)-3,4,5-trimethylpiperazin-1-yl)phenyl)-6-oxo-4-(trifluoromethyl)-1,6-dihydropyridine-3-carboxamide] | able to effectively degrade WDR5 |
| Cc1ncsc1-c1ccc(CNC(=O)[C@@H]2C[C@@H](O)CN2C(=O)[C@@H](NC(=O)CCCCCCCC(=O)N2CC=C(c3cc(NC(=O)c4c[nH]c(=O)cc4C(F)(F)F)c(N4C[C@@H](C)N(C)[C@@H](C)C4)cc3F)CC2)C(C)(C)C)cc1 [XF078-44, N-(4-fluoro-5-(1-(9-(((S)-1-((2S,4R)-4-hydroxy-2-((4-(4-methylthiazol-5-yl)benzyl)carbamoyl)pyrrolidin-1-yl)-3,3-dimethyl-1-oxobutan-2-yl)amino)-9-oxononanoyl)-1,2,3,6-tetrahydropyridin-4-yl)-2-((3S,5R)-3,4,5-trimethylpiperazin-1-yl)phenyl)-6-oxo-4-(trifluoromethyl)-1,6-dihydropyridine-3-carboxamide] | able to effectively degrade WDR5 |
| Cc1ncsc1-c1ccc(CNC(=O)[C@@H]2C[C@@H](O)CN2C(=O)[C@@H](NC(=O)CCCCCCCCC(=O)N2CC=C(c3cc(NC(=O)c4c[nH]c(=O)cc4C(F)(F)F)c(N4C[C@@H](C)N(C)[C@@H](C)C4)cc3F)CC2)C(C)(C)C)cc1 [XF078-45, N-(4-fluoro-5-(1-(10-(((S)-1-((2S,4R)-4-hydroxy-2-((4-(4-methylthiazol-5-yl)benzyl)carbamoyl)pyrrolidin-1-yl)-3,3-dimethyl-1-oxobutan-2-yl)amino)-10-oxodecanoyl)-1,2,3,6-tetrahydropyridin-4-yl)-2-((3S,5R)-3,4,5-trimethylpiperazin-1-yl)phenyl)-6-oxo-4-(trifluoromethyl)-1,6-dihydropyridine-3-carboxamide] | able to effectively degrade WDR5 |
| Cc1ncsc1-c1ccc(CNC(=O)[C@@H]2C[C@@H](O)CN2C(=O)[C@@H](NC(=O)CCCCCCCCCC(=O)N2CC=C(c3cc(NC(=O)c4c[nH]c(=O)cc4C(F)(F)F)c(N4C[C@@H](C)N(C)[C@@H](C)C4)cc3F)CC2)C(C)(C)C)cc1 [XF078-46, N-(4-fluoro-5-(1-(11-(((S)-1-((2S,4R)-4-hydroxy-2-((4-(4-methylthiazol-5-yl)benzyl)carbamoyl)pyrrolidin-1-yl)-3,3-dimethyl-1-oxobutan-2-yl)amino)-11-oxoundecanoyl)-1,2,3,6-tetrahydropyridin-4-yl)-2-((3S,5R)-3,4,5-trimethylpiperazin-1-yl)phenyl)-6-oxo-4-(trifluoromethyl)-1,6-dihydropyridine-3-carboxamide] | able to effectively degrade WDR5 |
| Cc1ncsc1-c1ccc(CNC(=O)[C@@H]2C[C@@H](O)CN2C(=O)[C@@H](NC(=O)COCCNC(=O)CCC(=O)N2CCN(c3ncc(-c4cc(NC(=O)c5c[nH]c(=O)cc5C(F)(F)F)c(N5C[C@@H](C)N(C)[C@@H](C)C5)cc4F)cn3)CC2)C(C)(C)C)cc1 [XF078-61, N-(4-fluoro-5-(2-(4-(4-((2-(2-(((S)-1-((2S,4R)-4-hydroxy-2-((4-(4-methylthiazol-5-yl)benzyl)carbamoyl)pyrrolidin-1-yl)-3,3-dimethyl-1-oxobutan-2-yl)amino)-2-oxoethoxy)ethyl)amino)-4-oxobutanoyl)piperazin-1-yl)pyrimidin-5-yl)-2-((3S,5R)-3,4,5-trimethylpiperazin-1-yl)phenyl)-6-oxo-4-(trifluoromethyl)-1,6-dihydropyridine-3-carboxamide] | able to effectively degrade WDR5 |
| Cc1ncsc1-c1ccc(CNC(=O)[C@@H]2C[C@@H](O)CN2C(=O)[C@@H](NC(=O)COCC(=O)N2CCN(c3ncc(-c4cc(NC(=O)c5ccc(F)cc5C(F)(F)F)c(N5C[C@@H](C)N(C)[C@@H](C)C5)cc4F)cn3)CC2)C(C)(C)C)cc1 [XF078-99, (2S,4R)-1-((S)-2-(2-(2-(4-(5-(2-fluoro-5-(4-fluoro-2-(trifluoromethyl)benzamido)-4-((3S,5R)-3,4,5-trimethylpiperazin-1-yl)phenyl)pyrimidin-2-yl)piperazin-1-yl)-2-oxoethoxy)acetamido)-3,3-dimethylbutanoyl)-4-hydroxy-N-(4-(4-methylthiazol-5-yl)benzyl)pyrrolidine-2-carboxamide] | able to effectively degrade WDR5 |
| Cc1ncsc1-c1ccc(CNC(=O)[C@@H]2C[C@@H](O)CN2C(=O)[C@@H](NC(=O)COCCOCC(=O)N2CCN(c3ncc(-c4cc(NC(=O)c5ccc(F)cc5C(F)(F)F)c(N5C[C@@H](C)N(C)[C@@H](C)C5)cc4F)cn3)CC2)C(C)(C)C)cc1 [XF078-101, (2S,4R)-1-((S)-2-(2-(2-(2-(4-(5-(2-fluoro-5-(4-fluoro-2-(trifluoromethyl)benzamido)-4-((3S,5R)-3,4,5-trimethylpiperazin-1-yl)phenyl)pyrimidin-2-yl)piperazin-1-yl)-2-oxoethoxy)ethoxy)acetamido)-3,3-dimethylbutanoyl)-4-hydroxy-N-(4-(4-methylthiazol-5-yl)benzyl)pyrrolidine-2-carboxamide] | able to effectively degrade WDR5 |
| Cc1ncsc1-c1ccc(CNC(=O)[C@@H]2C[C@@H](O)CN2C(=O)[C@@H](NC(=O)CCOCCOCCC(=O)N2CCN(c3ncc(-c4cc(NC(=O)c5ccc(F)cc5C(F)(F)F)c(N5C[C@@H](C)N(C)[C@@H](C)C5)cc4F)cn3)CC2)C(C)(C)C)cc1 [XF078-102, (2S,4R)-1-((S)-2-(3-(2-(3-(4-(5-(2-fluoro-5-(4-fluoro-2-(trifluoromethyl)benzamido)-4-((3S,5R)-3,4,5-trimethylpiperazin-1-yl)phenyl)pyrimidin-2-yl)piperazin-1-yl)-3-oxopropoxy)ethoxy)propanamido)-3,3-dimethylbutanoyl)-4-hydroxy-N-(4-(4-methylthiazol-5-yl)benzyl)pyrrolidine-2-carboxamide] | able to effectively degrade WDR5 |
| Cc1ncsc1-c1ccc(CNC(=O)[C@@H]2C[C@@H](O)CN2C(=O)[C@@H](NC(=O)COCCOCCOCC(=O)N2CCN(c3ncc(-c4cc(NC(=O)c5ccc(F)cc5C(F)(F)F)c(N5C[C@@H](C)N(C)[C@@H](C)C5)cc4F)cn3)CC2)C(C)(C)C)cc1 [XF078-103, (2S,4R)-1-((S)-2-(tert-butyl)-14-(4-(5-(2-fluoro-5-(4-fluoro-2-(trifluoromethyl)benzamido)-4-((3S,5R)-3,4,5-trimethylpiperazin-1-yl)phenyl)pyrimidin-2-yl)piperazin-1-yl)-4,14-dioxo-6,9,12-trioxa-3-azatetradecanoyl)-4-hydroxy-N-(4-(4-methylthiazol-5-yl)benzyl)pyrrolidine-2-carboxamide] | able to effectively degrade WDR5 |
| Cc1ncsc1-c1ccc(CNC(=O)[C@@H]2C[C@@H](O)CN2C(=O)[C@@H](NC(=O)CCOCCOCCOCCOCCC(=O)N2CCN(c3ncc(-c4cc(NC(=O)c5ccc(F)cc5C(F)(F)F)c(N5C[C@@H](C)N(C)[C@@H](C)C5)cc4F)cn3)CC2)C(C)(C)C)cc1 [XF078-105, (2S,4R)-1-((S)-2-(tert-butyl)-19-(4-(5-(2-fluoro-5-(4-fluoro-2-(trifluoromethyl)benzamido)-4-((3S,5R)-3,4,5-trimethylpiperazin-1-yl)phenyl)pyrimidin-2-yl)piperazin-1-yl)-4,19-dioxo-7,10,13,16-tetraoxa-3-azanonadecanoyl)-4-hydroxy-N-(4-(4-methylthiazol-5-yl)benzyl)pyrrolidine-2-carboxamide] | able to effectively degrade WDR5 |
